Earlier results as cited in US12036216B2 (TAHO Pharmaceuticals Ltd., priority 2021, dated 2024).
Counter-ions that a name gives are not always drawn. Like-named read-outs stand apart in the source and are kept apart here.

How the values were obtained:
[1] = system: factor Xa; settings: dog; read-out: IC50 for anti-factor Xa activity
[2] = biological target: prothrombin time (PT); settings: chimpanzee; read-out: apparent Ki for PT
[3] = not given; remark: listed apart in the source
[4] = immediate release tablet formulation
[5] = biological target: prothrombin time (PT); settings: dog; read-out: apparent Ki for PT
[6] = not given; remark: listed apart in the source
[7] = not given; remark: listed apart in the source
[8] = biological target: prothrombin time (PT); settings: rat; read-out: apparent Ki for PT
[9] = pellets taken without the capsule shell compared with the intact capsule formulation

Structure (SMILES) | IC50 [1] [µM] | Renal clearance as share of systemic clearance (chimpanzee) | absolute oral bioavailability (chimpanzee) [%] | clearance (CL) (chimpanzees) [mL/min/kg] | steady-state volume of distribution (Vd) (chimpanzees) [L/kg] | Ki [2] [µM] | Renal clearance as share of systemic clearance ([3]; rat) | absolute oral bioavailability ([3]; rat) [%] | clearance (CL) ([3]; rats) | steady-state volume of distribution (Vd) ([3]; rats) | dissolved within 30 minutes [4] | Ki [5] [µM] | Renal clearance as share of systemic clearance ([6]; dog) | absolute oral bioavailability ([6]; dog) [%] | clearance (CL) ([6]; dogs) [mL/min/kg] | steady-state volume of distribution (Vd) ([6]; dogs) [L/kg] | time to peak apixaban plasma concentration ([7]; after oral administration in healthy adults) | bioavailability ([7]; oral) | Ki [8] [µM] | increase of oral bioavailability [9] [%]
COc1ccc(-n2nc(C(N)=O)c3c2C(=O)N(c2ccc(N4CCCCC4=O)cc2)CC3)cc1 [apixaban, Apixaban] | […] | […] | […] | […] | ~0.17 | ~4.8 | […] | […] | […] | […] | at least 80% | ~6.6 | […] | […] | ~0.67 | ~0.2 | […] | […] | ~1.7 | 
CCCCCCOC(=O)NC(=N)c1ccc(NCc2nc3cc(C(=O)N(CCC(=O)OCC)c4ccccn4)ccc3n2C)cc1 [dabigatran etexilate mesylate] |  |  |  |  |  |  |  |  |  |  |  |  |  |  |  |  |  |  |  | 75
